The target of data set [1] is T1, Corticotropin-releasing factor receptor 1 (Rattus norvegicus, UniProt P35353).
T1 sequence (P35353 whole entry): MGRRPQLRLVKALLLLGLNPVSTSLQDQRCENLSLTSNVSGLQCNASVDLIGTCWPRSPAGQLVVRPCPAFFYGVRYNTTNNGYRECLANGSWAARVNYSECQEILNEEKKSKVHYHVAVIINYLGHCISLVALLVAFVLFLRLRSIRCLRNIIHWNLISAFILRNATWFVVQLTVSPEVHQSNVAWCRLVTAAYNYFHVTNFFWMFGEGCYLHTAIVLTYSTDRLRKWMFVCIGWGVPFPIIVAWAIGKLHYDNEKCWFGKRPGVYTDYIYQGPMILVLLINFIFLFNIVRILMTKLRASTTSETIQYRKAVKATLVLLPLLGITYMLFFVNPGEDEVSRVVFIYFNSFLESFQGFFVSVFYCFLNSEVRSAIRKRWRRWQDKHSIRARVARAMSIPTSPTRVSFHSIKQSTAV
The experiment in a line: Displacement of [125I]Tyr-ovine-CRF from CRF1 receptor in rat frontal cortex homogenate after 2 hrs by gamma counting analysis. Format: tissue-based.

The nature of data set [2]: Metabolic stability in human liver microsomes assessed as compound remaining after 10 mins. Format: ADME. The conditions noted are these: read-out: Stability.
Data set [3] in a line: Metabolic stability in rat liver microsomes assessed as compound remaining after 10 mins. The following applies: read-out: Stability. The format is ADME.
Data set [4] deals with T2, Corticotropin-releasing factor receptor 1 (Homo sapiens) (UniProt P34998).
T2 sequence (whole entry): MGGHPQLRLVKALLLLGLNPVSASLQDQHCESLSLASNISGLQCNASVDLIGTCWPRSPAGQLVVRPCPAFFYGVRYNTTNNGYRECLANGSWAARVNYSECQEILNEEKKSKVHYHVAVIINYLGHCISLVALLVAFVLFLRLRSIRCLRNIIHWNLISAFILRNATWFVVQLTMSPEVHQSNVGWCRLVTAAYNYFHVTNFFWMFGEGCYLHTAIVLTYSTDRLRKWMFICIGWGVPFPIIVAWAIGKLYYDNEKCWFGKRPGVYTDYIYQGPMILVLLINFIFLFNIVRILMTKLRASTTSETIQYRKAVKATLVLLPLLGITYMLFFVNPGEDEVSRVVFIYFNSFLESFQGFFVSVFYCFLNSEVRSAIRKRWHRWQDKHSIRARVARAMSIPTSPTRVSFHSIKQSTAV
As to the kind of experiment: (§1) Antagonist activity at CRF1 receptor in human Y79 cells assessed as inhibition of CRF-stimulated cAMP production preincubated for 30 mins followed by CRF addition measured after 30 mins by HTRF assay. The format is functional, cell-based.

The target in data set [5] is T3, Corticotropin-releasing factor receptor 1 (Homo sapiens, UniProt P34998).
T3 sequence (P34998 whole entry): T2 sequence (whole entry)
The data set is described as §1. The format is functional, cell-based.

pIC50: −log10 of the molar value.

`COc1nc(C)c(Nc2nc(Cl)cn([C@H](COC(=O)c3ccccc3)C3CC3)c2=O)cc1C` had a pIC50 in data set [1] of 8.82.
Take `COc1ccc(NC(=O)OC[C@H](C2CC2)n2cc(Cl)nc(Nc3cc(C)c(OC)nc3C)c2=O)c(C)n1`: the pIC50 in data set [1] is 8.04.
The same measure, in the same setting: the figure for `COc1nc(C)c(Nc2nc(Cl)cn([C@H](COc3ccc(C(F)(F)F)cn3)C3CC3)c2=O)cc1C` is 8.80; for `COc1nc(C)c(Nc2nc(Cl)cn([C@H](COC(C)=O)C3CC3)c2=O)cc1C` it is 8.28; for `COc1nc(C)c(Nc2nc(Cl)cn([C@H](COC(=O)Nc3cc(Cl)cc(Cl)c3)C3CC3)c2=O)cc1C` it is 8.77.
On the same count and under the same terms, to `COc1nc(C)c(Nc2nc(Cl)cn([C@H](COc3cccnc3)C3CC3)c2=O)cc1C` belongs 8.17; to `COc1nc(C)c(Nc2nc(Cl)cn([C@H](COC(=O)Nc3ccccc3Cl)C3CC3)c2=O)cc1C`, 8.82.
Consider `COc1nc(C)c(Nc2nc(Cl)cn([C@H](COC(=O)c3cccnc3)C3CC3)c2=O)cc1C`, for which, in data set [1], the pIC50 is 8.28.
On the same count and under the same terms, to `COc1nc(C)c(Nc2nc(Cl)cn([C@H](COc3ccc(C#N)cn3)C3CC3)c2=O)cc1C` belongs 8.11.
Compound `COc1nc(C)c(Nc2nc(Cl)cn([C@H](COC(=O)c3ccncc3)C3CC3)c2=O)cc1C` showed a pIC50 in data set [1] of 8.31.
Compound `COc1nc(C)c(Nc2nc(Cl)cn([C@H](COc3cc(Br)ccn3)C3CC3)c2=O)cc1C` showed a pIC50 in data set [1] of 8.82.
For `COc1nc(C)c(Nc2nc(Cl)cn([C@H](COC(=O)Nc3cccnc3)C3CC3)c2=O)cc1C`, the remaining at 10 min is 36% in data set [2] and 35% in data set [3]. In data set [1], the negative-log IC50 (pIC50) was 8.00.
In turn, `COc1nc(C)c(Nc2nc(Cl)cn([C@H](COC(=O)Nc3ccc(Cl)cc3Cl)C3CC3)c2=O)cc1C` had a pIC50 in data set [1] of 8.77.
For `COc1nc(C)c(Nc2nc(Cl)cn([C@H](COC(=O)Nc3ccccc3)C3CC3)c2=O)cc1C`, the remaining at 10 min amounted to 32% in data set [2] and 33% in data set [3]. In data set [1], this compound gave a pIC50 of 8.82.
For the compound `COc1nc(C)c(Nc2nc(Cl)cn([C@H](CO)C3CC3)c2=O)cc1C`, in data set [1], the negative logarithm of the IC50 (pIC50) is 7.06.
On the same count and under the same terms, to `CCNC(=O)OC[C@H](C1CC1)n1cc(Cl)nc(Nc2cc(C)c(OC)nc2C)c1=O` belongs 7.85; to `COc1nc(C)c(Nc2nc(Cl)cn([C@H](COc3cc(C#N)ccn3)C3CC3)c2=O)cc1C`, 8.17; to `COc1nc(C)c(Nc2nc(Cl)cn([C@H](COC(=O)Nc3cccc(C#N)c3)C3CC3)c2=O)cc1C`, 8.89.
As to `Cc1cc(Nc2nc(Cl)cn([C@H](COC(=O)Nc3ccccc3)C3CC3)c2=O)c(C)nc1OC(F)F`, the remaining at 10 min stood at 77% in data set [2] and 75% in data set [3]. Also, in data set [4], the inhibition result is “Dose-dependent effect”. Besides, the pIC50 in data set [5] was 8.92.
`COc1nc(C)c(Nc2nc(Cl)cn([C@H](COc3ccccn3)C3CC3)c2=O)cc1C` had a pIC50 in data set [1] of 8.92.
Still for that read-out and setting: to `COC[C@H](C1CC1)n1cc(Cl)nc(Nc2cc(C)c(OC(F)F)nc2C)c1=O` belongs 9.54; to `CCCNC(=O)OC[C@H](C1CC1)n1cc(Cl)nc(Nc2cc(C)c(OC)nc2C)c1=O`, 8.00.
In the case of `Cc1cc(Nc2nc(Cl)cn([C@H](COC(=O)Nc3cccnc3)C3CC3)c2=O)c(C)nc1OC(F)F`, the remaining at 10 min amounted to 71% in data set [2] and 52% in data set [3]. In addition, the pIC50 in data set [1] is 8.72.
As to `COc1nc(C)c(Nc2nc(Cl)cn([C@H](COC(=O)Nc3ccc(Cl)cc3)C3CC3)c2=O)cc1C`, in data set [1], the pIC50 was 8.80.
`COc1nc(C)c(Nc2nc(Cl)cn([C@H](COC(=O)c3ccccn3)C3CC3)c2=O)cc1C` showed a pIC50 in data set [1] of 7.17.

For the origin of these results see ChEMBL document CHEMBL3797145, “Synthesis and evaluation of carbamate and aryl ether substituted pyrazinones as corticotropin releasing factor-1 (CRF₁) receptor antagonists” (Bioorg Med Chem Lett, 2016).
